{
  "source": "patent US20200253979A1",
  "about": "“THERAPEUTIC METHODS RELATING TO HSP90 INHIBITORS” (AI Therapeutics, Inc., priority 2017, published 2020)",
  "key": {"[1]": {"system": "mutant EGFR on the cell surface of H1975 cells", "test": "Cell surface EGFR by flow cytometry", "assay_type": "cell-based", "settings": "H1975, 1 μM, 24 hours", "experimental": "(§1) FIG. 3A-B: MPC-0767 reduces cell surface EGFR expression in H1975 cells (A) and PC-9 cells (B). Cells were treated with MPC-0767 (1 μM) for 24 hours before being harvested and cell expression of EGFR determined by flow cytometry.\n(§2) These findings confirm that MPC-0767 targets and degrades EGFR in lung cancer cell lines."}, "[2]": {"system": "mutant EGFR on the cell surface of PC-9 cells", "test": "Cell surface EGFR by flow cytometry", "assay_type": "cell-based", "settings": "PC-9, 1 μM, 24 hours", "experimental": "as §1, §2"}, "HL60 (HL-60) cells": {"system": "HL60 (HL-60) cells", "test": "CellTiter-Glo cell viability (single agent and combination)", "assay_type": "cell-based", "settings": "HL60, 72 h"}, "[3]": {"system": "cell surface FLT3 in MV-4-11 cells", "test": "Cell surface FLT3 by flow cytometry", "assay_type": "cell-based", "settings": "MV-4-11, 1 μM, 24 hours", "experimental": "To determine whether MPC-0767 can promote the degradation of FLT3-ITD and abolish downstream signaling, MV-4-11 and MOLM-13 cells were treated with vehicle or MPC-0767 (1 μM) for 24 hours. Cells were harvested for flow cytometry to assess cell surface FLT3 protein abundance. In addition, the measurement of a key phosphorylation site of S6 (phospho-S6) was used as a marker for oncogenic FLT3-ITD signaling (Zimmerman et al., Blood. 2013 122(22): 3607-3615). Indeed, in both MV-4-11 and MOLM-13 cells treated with MPC-0767 there was a >65% reduction in cell surface FLT3 (FIGS. 10A and 10B, respectively) and >70% reduction in phospho-S6 (FIGS. 10C and 10D, respectively)."}, "OCIAML3 cells": {"system": "OCIAML3 cells", "test": "CellTiter-Glo cell viability", "assay_type": "cell-based", "settings": "OCIAML3, 72 h"}, "[4]": {"system": "phospho-ERK (pERK) in MOLM-13 cells", "test": "Phospho-ERK level", "assay_type": "cell-based, human", "settings": "MPC-0767 800 nM, ATO 625 nM or combination, 24 hours", "source_text": "We next explored whether the synergistic activity of MPC-0767 and ATO was due to a more complete abrogation of FLT3-ITD oncogenic signaling. […] After this time cells were harvested for the assessment of cell surface FLT3 expression by flow cytometry. To additionally measure the effects of abrogating FLT3, we assessed phospho-ERK (pERK) and phospho-S6 (pS6), as these are two known downstream effectors."}, "MOLM-13-LUC cells": {"system": "MOLM-13-LUC cells", "test": "CellTiter-Glo cell viability", "assay_type": "cell-based", "settings": "Homo sapiens, 72 hours", "source_text": "In the clinic, tyrosine kinase inhibitors that target FLT3 initially show positive responses, but patients inevitably relapse due to the development of drug-resistance through various mechanisms, as discussed above."}, "[5]": {"system": "primary AML samples harboring FLT3-ITD", "test": "Annexin V / 7AAD cell death by flow cytometry", "assay_type": "cell-based, human", "settings": "increasing concentrations, 72 hours, 4 primary samples", "experimental": "To test whether the anti-leukemic effect of MPC-0767 is due to induction of cell death, 4 primary AML samples (all harboring FLT3-ITD) were treated with increasing concentrations of MPC-0767 for 72 hours. Samples were then processed for quantification by flow cytometry of cells positive for annexin V and 7AAD. These markers allow the detection of cell death, specifically dead (7AAD only positive), early apoptotic (annexin V only positive) or late stage apoptotic/necrotic (7AAD and annexin V positive) populations were combined to give a readout of cell death."}, "[6]": {"system": "murine MC38 colon cancer cell line", "test": "MC38 syngeneic tumor model"}, "PD-L1 on THP-1 cells": {"system": "PD-L1 on THP-1 cells", "test": "PD-L1 expression on THP-1 cells by flow cytometry", "assay_type": "cell-based", "settings": "IFNγ overnight with MPC-0767 1 μM or 2 uM", "source_text": "FIG. 29A-D: MPC-0767 repression of PD-L1 expression increases T cell activation. Bar graphs show activation of Jurkat reporter cells with anti-CD3 (A) and PD-L1-dependent inhibition of T cell activation after IFNγ treatment (B). Bars in A&B represent the mean +/− SD of triplicate wells and are representative of three independent experiments. […] Bars in C&D represent the mean +/− SD of three independent experiments.\nWe next determined whether MPC-0767 reduction of PD-L1 could increase T cell stimulation similar to anti-PD-L1 blocking antibodies. THP-1 cells were treated overnight with IFNγ in the presence or absence of MPC-0767 (1 μM or 2 uM). THP-1 cells were washed and a portion saved for flow cytometry analysis of PD-L1 expression. The remaining cells were incubated with Jurkat reporter cells and anti-CD3 (10 ng/ml) for 6 hours."}, "[7]": {"system": "PD-L1 on tumor infiltrating leukocytes (CD45+, CD3−)", "test": "PD-L1 on tumor infiltrating leukocytes in MC38 tumors", "assay_type": "in vivo, mouse", "settings": "150 mg/kg QD×7", "experimental": "To test if MPC-0767 may induce an anti-tumor immune response in addition to direct cytotoxic activity, down regulation of PD-Ll and the effector/regulatory T-cell ratio was measured in the same MC38 syngeneic model. On day 21, when the average tumor volume was 372 mm^3 in size, a second group of mice (n=6) was treated with 150 mg/kg MPC-0767 QD×7. One day post the last dose (day 28 post inoculation) tumors were harvested from the vehicle and 150 mg/kg MPC-0767 QD×7 group. Tumor infiltrating leukocytes (CD45^+, CD3^−) within the dissociated tumors were analyzed for PD-L1 expression by flow cytometry."}, "[8]": {"system": "MV-4-11 cell line (AML FLT3-ITD) xenograft", "test": "Subcutaneous MV-4-11 xenograft study", "settings": "oral, 200 mg/kg QD×2 days then 150 mg/kg QD×15 days"}, "[9]": {"settings": "cited from earlier work"}, "[10]": {"system": "BaF3 cells harboring FLT3-ITD", "test": "CellTiter-Glo cell viability", "assay_type": "cell-based, murine", "settings": "Mus musculus, 72 hours", "experimental": "After this time cell viability was determined using CTG and EC50 values determined.\nEC50 values were calculated using equation 1 (as described above).\nBaF3 cells require the supplementation of IL-3 to activate the IL-3 receptor for growth. However, in BaF3 cells transfected with FLT3-ITD, cells no longer require IL3 as survival is solely driven by oncogenic FLT3 signaling."}},
  "data": [
    {"smiles": "C[C@H](N)C(=O)O[C@@H](C)C(=O)N1CCC(CCn2c(Sc3cc4c(cc3Br)OCO4)nc3c(N)ncnc32)CC1", "note": "[MPC-0767]", "values": [
      {"measurement": "mutant EGFR on the cell surface", "setting": "[1]", "value": "decreased"},
      {"measurement": "mutant EGFR on the cell surface", "setting": "[2]", "value": "decreased"},
      {"measurement": "MPC-0767 Sensitivity", "setting": "HL60 (HL-60) cells", "value": "Resistant (EC50 values above 1 μM considered resistant)"},
      {"measurement": "EC50", "setting": "HL60 (HL-60) cells; Homo sapiens, HL-60", "value": 1.96, "unit": "µM"},
      {"measurement": "reduction in cell surface FLT3", "setting": "[3]", "value": "> 65", "unit": "%"},
      {"measurement": "EC50", "setting": "OCIAML3 cells; Homo sapiens, OCI-AML-3", "value": 1.81, "unit": "µM"},
      {"measurement": "MPC-0767 Sensitivity", "setting": "OCIAML3 cells", "value": "Resistant (EC50 values above 1 μM considered resistant)"},
      {"measurement": "pERK level", "setting": "[4]", "value": "mildly reduced"},
      {"measurement": "EC50", "setting": "MOLM-13-LUC cells", "value": 0.496, "unit": "µM"},
      {"measurement": "cell death (annexin V and/or 7AAD positive)", "setting": "[5]", "value": "dose-dependent increase in cell death"},
      {"measurement": "effect on body weight", "setting": "[6]; oral 150 mg/kg QD×17", "value": "without significant effects on body weight"},
      {"measurement": "tumor growth inhibition", "setting": "[6]; oral 150 mg/kg QD×17, P=0.01", "value": 69.5, "unit": "%"},
      {"measurement": "PD-L1 expression on THP-1 cells", "setting": "PD-L1 on THP-1 cells", "value": "dose-dependently reduced PD-L1 expression"},
      {"measurement": "PD-L1 expression on tumor infiltrating leukocytes", "setting": "[7]", "value": "significant reduction of PD-L1"},
      {"measurement": "effect on body weight", "setting": "[8]", "value": "without significant effects on body weight"},
      {"measurement": "tumor regression", "setting": "[8]", "value": 84, "unit": "%"},
      {"measurement": "complete tumor regression (animals)", "setting": "[8]; n=10", "value": "5/10 and Five"},
      {"measurement": "aqueous solubility", "setting": "[9]", "value": "improved aqueous solubility"},
      {"measurement": "EC50", "setting": "[10]", "value": 0.497, "unit": "µM"}
    ]}
  ]
}
